Like-named read-outs stand apart in the source and are kept apart here.
Legend:
RXF393 = experiment: NCI five-dose assay; assay type: cell-based, human; conditions: RXF393, Renal cancer
OVCAR-8 = experiment: NCI five-dose assay; assay type: cell-based, human; conditions: OVCAR-8, Ovarian cancer
SR = experiment: NCI five-dose assay; assay type: cell-based, human; conditions: Leukemia
NCI-H322M = experiment: NCI five-dose assay; assay type: cell-based, human; conditions: Non-small cell lung cancer
OVCAR-5 = experiment: NCI five-dose assay; assay type: cell-based, human; conditions: OVCAR-5, Ovarian cancer
PC-3 = experiment: NCI five-dose assay; assay type: cell-based, human; conditions: PC-3, Prostate cancer
M14 = experiment: NCI five-dose assay; assay type: cell-based, human; conditions: M14, Melanoma
NCI-H522 = experiment: NCI five-dose assay; assay type: cell-based, human; conditions: NCI-H522, Non-small cell lung cancer
SN12C = experiment: NCI five-dose assay; assay type: cell-based, human; conditions: Renal cancer
NCI/ADR-RES = experiment: NCI five-dose assay; assay type: cell-based, human; conditions: Ovarian cancer
MDA/MB-231-ATCC = experiment: NCI five-dose assay; assay type: cell-based, human; conditions: Breast cancer
786-0 = experiment: NCI five-dose assay; assay type: cell-based, human; conditions: 786-0, Renal cancer
Colon cancer subpanel = experiment: NCI five-dose assay, subpanel mean; assay type: cell-based, human
Ovarian cancer subpanel = experiment: NCI five-dose assay, subpanel mean; assay type: cell-based, human
[1] = tested on: panel of 60 human tumor cell lines; experiment: NCI five-dose assay, full panel; assay type: cell-based
SF-539 = experiment: NCI five-dose assay; assay type: cell-based, human; conditions: SF-539, CNS cancer
CNS cancer subpanel = experiment: NCI five-dose assay, subpanel mean; assay type: cell-based, human
NCI-H226 = experiment: NCI five-dose assay; assay type: cell-based, human; conditions: NCI-H226, Non-small cell lung cancer
SK-MEL-2 = experiment: NCI five-dose assay; assay type: cell-based, human; conditions: SK-MEL-2, Melanoma
SW-620 = experiment: NCI five-dose assay; assay type: cell-based, human; conditions: SW-620, Colon cancer
A549/ATCC = experiment: NCI five-dose assay; assay type: cell-based, human; conditions: Non-small cell lung cancer
NCI-H460 = experiment: NCI five-dose assay; assay type: cell-based, human; conditions: NCI-H460, Non-small cell lung cancer
SK-OV-3 = experiment: NCI five-dose assay; assay type: cell-based, human; conditions: SK-OV-3, Ovarian cancer
IGROV1 = experiment: NCI five-dose assay; assay type: cell-based, human; conditions: IGROV1, Ovarian cancer
CCRF-CEM = experiment: NCI five-dose assay; assay type: cell-based, human; conditions: Leukemia
A498 = experiment: NCI five-dose assay; assay type: cell-based, human; conditions: A498, Renal cancer
Prostate cancer subpanel = experiment: NCI five-dose assay, subpanel mean; assay type: cell-based, human
[2] = Homo sapiens, 48 h, read-out: LC50 (the source's name)
[3] = Homo sapiens, read-out: GI50 Conc. per Cell Lines

Cc1ccc(C(=O)CSc2nnc(-c3c[nH]c4ccccc34)n2-c2ccccc2)cc1 [Compound 6h, 2-((5-(1H-Indol-3-yl)-4-phenyl-4H-1,2,4-triazol-3-yl)thio)-1-(p-tolyl)ethenone]
LC50 (concentration killing 50% of cells) (RXF393; Homo sapiens, RXF 393, 48 h): 61.5 µM | GI50 (RXF393; Homo sapiens, RXF 393, read-out: GI50 Conc. per Cell Lines): 13.6 µM | TGI Conc. per Cell Lines (RXF393): 28.90 µM | CC50 (OVCAR-8; [2]): > 100 µM | GI50 (OVCAR-8; [3]): 24.5 µM | TGI Conc. per Cell Lines (OVCAR-8): ˃100 µM | CC50 (SR; [2]): > 100 µM | GI50 (SR; [3]): 42 µM | TGI Conc. per Cell Lines (SR): ˃100 µM | CC50 (NCI-H322M; [2]): > 100 µM | GI50 (NCI-H322M; [3]): 16.3 µM | TGI Conc. per Cell Lines (NCI-H322M): 55.50 µM | LC50 (OVCAR-5; Homo sapiens, 48 h): 71.5 µM | GI50 (OVCAR-5; [3]): 19.4 µM | TGI Conc. per Cell Lines (OVCAR-5): 37.20 µM | CC50 (PC-3; [2]): > 100 µM | GI50 (PC-3; [3]): 12.4 µM | TGI Conc. per Cell Lines (PC-3): 37.80 µM | CC50 (M14; [2]): > 100 µM | GI50 (M14; [3]): 32.1 µM | TGI Conc. per Cell Lines (M14): >100 µM | CC50 (NCI-H522; [2]): > 100 µM | GI50 (NCI-H522; [3]): 16.3 µM | TGI Conc. per Cell Lines (NCI-H522): 43.70 µM | CC50 (SN12C; [2]): > 100 µM | GI50 (SN12C; [3]): 19.4 µM | TGI Conc. per Cell Lines (SN12C): 48.90 µM | LC50 (NCI/ADR-RES; Homo sapiens, 48 h): 76.8 µM | GI50 (NCI/ADR-RES; [3]): 11.9 µM | TGI Conc. per Cell Lines (NCI/ADR-RES): 30.20 µM | TGI Conc. per Cell Lines (MDA/MB-231-ATCC): 32.60 µM | LC50 (MDA/MB-231-ATCC; Homo sapiens, 48 h): 69 µM | GI50 (MDA/MB-231-ATCC; [3]): 15.4 µM | TGI Conc. per Cell Lines (786-0): 31.20 µM | LC50 (50% lethal concentration) (786-0; Homo sapiens, 48 h): 66.4 µM | GI50 (786-0; [3]): 14.7 µM | GI50 Selectivity Ratio (MID a/MID b) (Colon cancer subpanel; Colon cancer subpanel): 0.76 | GI50 (Colon cancer subpanel; Homo sapiens, average sensitivity of all cell lines of the Colon cancer subpanel, read-out: GI50 Subpanel MID b): 25.4 µM | GI50 (Ovarian cancer subpanel; Homo sapiens, average sensitivity of all cell lines of the Ovarian cancer subpanel, read-out: GI50 Subpanel MID b): 17.4 µM | GI50 Selectivity Ratio (MID a/MID b) (Ovarian cancer subpanel; Ovarian cancer subpanel): 1.10 | GI50 ([1]; average sensitivity of all cell lines, read-out: GI50 MID a): 19.3 µM | GI50 ([1]; most of the tested cell lines across nine subpanels, read-out: GI50 values, range across nine subpanels): 8.42 to 33.5 µM | CC50 (SF-539; [2]): 54.2 µM | GI50 (SF-539; [3]): 15 µM | TGI Conc. per Cell Lines (SF-539): 28.50 µM | GI50 Selectivity Ratio (MID a/MID b) (CNS cancer subpanel; CNS cancer subpanel): 1.11 | GI50 (CNS cancer subpanel; Homo sapiens, average sensitivity of all cell lines of the CNS cancer subpanel, read-out: GI50 Subpanel MID b): 17.4 µM | CC50 (NCI-H226; [2]): 69.8 µM | GI50 (NCI-H226; [3]): 9.22 µM | TGI Conc. per Cell Lines (NCI-H226): 26.10 µM | CC50 (SK-MEL-2; [2]): > 100 µM | GI50 (SK-MEL-2; [3]): 30.2 µM | TGI Conc. per Cell Lines (SK-MEL-2): >100 µM | CC50 (SW-620; [2]): > 100 µM | GI50 (SW-620; [3]): 30.3 µM | TGI Conc. per Cell Lines (SW-620): >100 µM | CC50 (A549/ATCC; [2]): > 100 µM | GI50 (A549/ATCC; [3]): 13.9 µM | TGI Conc. per Cell Lines (A549/ATCC): 48.50 µM | CC50 (NCI-H460; [2]): 63.5 µM | GI50 (NCI-H460; [3]): 15.2 µM | TGI Conc. per Cell Lines (NCI-H460): 31.00 µM | CC50 (SK-OV-3; [2]): 64.4 µM | GI50 (SK-OV-3; [3]): 17 µM | TGI Conc. per Cell Lines (SK-OV-3): 33.10 µM | CC50 (IGROV1; Homo sapiens, IGROV-1, 48 h, read-out: LC50 (the source's name)): 61 µM | GI50 (IGROV1; Homo sapiens, IGROV-1, read-out: GI50 Conc. per Cell Lines): 16.1 µM | TGI Conc. per Cell Lines (IGROV1): 31.30 µM | CC50 (CCRF-CEM; [2]): > 100 µM | GI50 (CCRF-CEM; [3]): 54.4 µM | TGI Conc. per Cell Lines (CCRF-CEM): ˃100 µM | TGI Conc. per Cell Lines (A498): 69.40 µM | LC50 (A498; Homo sapiens, 48 h): > 100 µM | GI50 (A498; [3]): 22.1 µM | GI50 (Prostate cancer subpanel; Homo sapiens, average sensitivity of all cell lines of the Prostate cancer subpanel, read-out: GI50 Subpanel MID b): 8.42 µM | GI50 Selectivity Ratio (MID a/MID b) (Prostate cancer subpanel; Prostate cancer subpanel): 2.29

From PMC11859928, “Design, Synthesis, and Antiproliferative Activity of Novel Indole/1,2,4-Triazole Hybrids as Tubulin Polymerization Inhibitors” (Pharmaceuticals, 2025)
